# Test results reported in PMC3834726 (Clinical cancer research : an official journal of the …, 2012).
# Read-outs that look alike come from different tables or passages of the source.
# Legend:
# [1] = potent inhibitor of CYP2C19; cited from earlier work
# [2] = including patients on dialysis; cited from earlier work
# [3] = tested on: blood 20S proteasome; assay: Pharmacodynamics: blood 20S proteasome activity; format: in vivo, human
# [4] = tested on: advanced malignancies; assay: Tumor response; format: in vivo, human
# [5] = human, in vivo
compound,measurement,setting,value
"CC(C)C[C@H](NC(=O)[C@H](Cc1ccccc1)NC(=O)c1cnccn1)B(O)O [bortezomib, Bortezomib]",Bortezomib exposure on co-administration of omeprazole,[1],unaffected
same,Pharmacokinetics in varying grades of renal impairment,[2],not altered
same,Magnitude of percent inhibition of blood 20S proteasome activity,"[3]; 0.5 mg/m^2, severe hepatic impairment (data not shown)",lower than that observed at the higher dose levels
same,Time of maximum mean percent inhibition of blood 20S proteasome activity,"[3]; across dose levels and hepatic function groups, first post-dose time point",1 h
same,Mean percent inhibition of 20S proteasome activity at 24 hours post dose,"[3]; normal hepatic function group, 1.3 mg/m^2, day 1",approximately 31%
same,Patients achieving stable disease,[4]; all hepatic function groups,five
same,Patients with progressive disease as best response,[4]; all patients,35
same,Study discontinuation due to disease progression,[4]; all patients,37 (61%) n (%)
same,Study discontinuation due to disease progression,[4]; mild impairment group,11 (65%) n (%)
same,Study discontinuation due to disease progression,[4]; moderate impairment group,9 (75%) n (%)
same,Study discontinuation due to disease progression,[4]; normal function group,8 (57%) n (%)
same,Study discontinuation due to disease progression,[4]; severe impairment group,9 (50%) n (%)
same,Disposition kinetics,[5],multi-exponential disposition kinetics
same,Dose calculated to match exposures at 1.3 mg/m^2 in normal hepatic function,[5],approximately 0.8 mg/m^2
same,Increase in dose-normalized AUC (systemic exposure),[5],approximately 60%
same,Increase in mean dose-normalized AUC0-tlast,[5],approximately 60%
same,Observed mean increase in dose-normalized AUC relative to normal hepatic function group,[5],1.6 fold
same,Deaths during the study,all patients,15
same,Died during treatment (reason for study discontinuation),all patients,2 (3%) n (%)
same,On-study deaths,"all patients, N=61",15 (25) n (%)
same,Deaths due to disease progression,"all patients, of 15 deaths",12
same,"Anorexia, any grade","human, in vivo",19 (31) n (%)
same,Any AE,"human, in vivo",59 (97) n (%)
same,Any drug-related AE,"human, in vivo",40 (66) n (%)
same,Any grade ≥3 AE,"human, in vivo",49 (80) n (%)
same,Any grade ≥4 AE,"human, in vivo",22 (36) n (%)
same,Any serious AE,"human, in vivo",28 (46) n (%)
same,"Decreased platelet count, any grade","human, in vivo",18 (30) n (%)
same,"Decreased platelet count, grade ≥3","human, in vivo",7 (11) n (%)
same,Discontinuation due to grade 3 hypotension,"human, in vivo",1 patient
same,Discontinuation due to grade 4 elevated blood bilirubin,"human, in vivo",2 patients
same,"Dyspnea, any grade","human, in vivo",19 (31) n (%)
same,"Elevated AST, incidence","human, in vivo",7%
same,"Elevated blood bilirubin, rate","human, in vivo",7%
same,"Fatigue, any grade","human, in vivo",31 (51) n (%)
same,"Fatigue, grade ≥3","human, in vivo",9 (15) n (%)
same,"Increased AST, grade ≥3","human, in vivo",6 (10) n (%)
same,"Increased blood bilirubin, grade ≥3","human, in vivo",7 (11) n (%)
same,"Nausea, any grade","human, in vivo",24 (39) n (%)
same,Rate of grade ≥3 AEs,"human, in vivo",71%
same,Rate of grade ≥4 AEs,"human, in vivo",14%
same,Dose-limiting toxicity (DLT),in vivo,none of these events met the protocol-defined criteria for DLT
same,Relation of elevations in liver function test parameters to drug,in vivo,not considered to be drug-related
same,On-study deaths,"mild impairment, 1.0 mg/m^2, n=6",0 n (%)
same,On-study deaths,"mild impairment, 1.3 mg/m^2, n=11",4 (36) n (%)
same,On-study deaths,"moderate impairment, 0.7 mg/m^2, n=9",2 (22) n (%)
same,On-study deaths,"moderate impairment, 1.0 mg/m^2, n=3",0 n (%)
same,On-study deaths,"normal hepatic function, 1.3 mg/m^2, N=14",2 (14) n (%)
same,On-study deaths,"severe impairment, 0.5 mg/m^2, n=5",2 (40) n (%)
same,On-study deaths,"severe impairment, 0.7 mg/m^2, n=6",3 (50) n (%)
same,On-study deaths,"severe impairment, 1.0 mg/m^2, n=7",2 (29) n (%)
